According to patent publication US20090143465A1 (SUMITOMO CHEMICAL COMPANY, LIMITED, priority 2006, published 2009):

Test system: Adult houseflies
Experiment: Housefly knock-down test, oil solution sprayed in cubic chamber (Test Example 1)
Format: in vivo, houseflies (Musca domestica)
Details: 0.7 ml of 0.00625% oil solution sprayed into 70 cm cubic chamber; adult houseflies (5 males and 5 females); counted up to 10 minutes after spraying
Description: A solution of 0.00625 part of the present compound (1) in 10 parts of dichloromethane was mixed with 89.99375 parts of deodorized kerosene to obtain a 0.00625% oil solution.
Adult houseflies (5 males and 5 females) were left in a cubic chamber (70 cm at each side). Into the chamber, 0.7 ml of 0.00625% oil solution of the present compound (1) prepared above was sprayed with a spray gun at a pressure of 8.8×10^4 Pa from a small window on the side of the chamber. Then, up to 10 minutes after spraying, the number of knocked-down insects was counted with time. From the results, a time required for knocking down 90% of the tested insects (KT90) was calculated.
In addition, the same test was carried out that 4-propargyl-2,3,5,6-tetrafluorobenzyl (1R)-trans-3-(2-methyl-1-propenyl)-2,2-dimethylcyclopropanecarboxylate represented by the formula: […]
(hereinafter, referred to as the comparative compound (A)), which is the compound described in JP-A 61-207361, was used as a comparative compound (repeated twice).

C#CCc1c(F)c(F)c(COC(=O)C2C(/C=C(\C#N)C(=O)OCC)C2(C)C)c(F)c1F (stereo not shown) and C#CCc1c(F)c(F)c(COC(=O)C2C(/C=C(\C#N)C(=O)OC)C2(C)C)c(F)c1F (stereo not shown) are within 1.5-fold of each other in “KT90 (time required for knocking down 90% of the tested insects)” value: 2.0 min for the first, 2.6 min for the second.

For C#CCc1c(F)c(F)c(COC(=O)C2C(/C=C(\C#N)C(=O)OC(C)C)C2(C)C)c(F)c1F (stereo not shown), the “KT90 (time required for knocking down 90% of the tested insects)” value was 5.1 min.

For C#CCc1c(F)c(F)c(COC(=O)[C@@H]2[C@@H](C=C(C)C)C2(C)C)c(F)c1F [Comparative compound (A), 4-propargyl-2,3,5,6-tetrafluorobenzyl (1R)-trans-3-(2-methyl-1-propenyl)-2,2-dimethylcyclopropanecarboxylate, reference compound], the “KT90 (time required for knocking down 90% of the tested insects)” value was over 10 min.
